The supplement of paper PMC11451515

Tests used:
Settings in all cases: 48 h
NOMO1 [1] = assay: AUC of viability dose-response curve (% viability x log10 dose units); higher = less sensitive
Summary of the method: (§1)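 Medium-adapted leukemia cells in 1536-well plates, at 500 or 1000 cells/well, were incubated for 48 h at 37°C with library compounds in DMSO at 11 threefold doses from 47 μM to 0.79 nM. CellTiter-Glo One luminescence normalised per plate to DMSO and cell-free wells was fitted with a four-parameter log-logistic model over log10 doses. Area under the curve was integrated from this fit by trapezoidal rule, with curves beyond full viability scaled and failed quality-control curves removed.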

P12-Ichikawa [2] = assay: as above
Summary of the method: as §1

SEM cells [3] = assay: as above
Summary of the method: as §1

SEM cells [4] = assay: cell viability relative to DMSO control; higher = less cytotoxic
Summary of the method: (§2)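 Viability is expressed as a percentage of DMSO wells within each plate, and cell-free wells serve as background. Seeding densities in the 1536-well plates (5 μl) were 500 cells/well for NOMO1 or SEM leukemia cells and 1000 cells/well for P12-Ichikawa. Each line was adapted for at least four passages in each medium. Library compounds in DMSO were pin-dosed at 47 μM to 0.79 nM (11 points, threefold), and CellTiter-Glo One luminescence was read after 48 h at 37°C.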

P12-Ichikawa [5] = assay: as above
Summary of the method: as §2

NOMO1 [6] = assay: as above
Summary of the method: as §2

COc1cc(C)c(/C=C/C(C)=C/C=C/C(C)=C/C(=O)O)c(C)c1C
AUC of viability dose-response curve
Settings | NOMO1 [1] | P12-Ichikawa [2] | SEM cells [3]
HPLM + 10% dialyzed FBS | 442 | 458 | 450
RPMI 5 mM glucose + 10% FBS | 441 | 441 | 426
RPMI 5 mM glucose + 10% dialyzed FBS | 420 | 455 | 450

Cc1c(CN2CCN([S+](C)(=O)[O-])CC2)sc2c(N3CCOCC3)nc(-c3cnc(N)nc3)nc12
SEM cells [4], RPMI 5 mM glucose + 10% dialyzed FBS
Settings | cell viability [%]
0.000781 µM | 118
0.00234 µM | 134
0.00702 µM | 122
0.0211 µM | 105
0.0632 µM | 87.3
0.19 µM | 86.6
0.569 µM | 98.8
1.71 µM | 57.9
5.12 µM | 50.8
15.4 µM | 50.6
46.1 µM | 44

AUC of viability dose-response curve
Settings | NOMO1 [1] | P12-Ichikawa [2] | SEM cells [3]
HPLM + 10% dialyzed FBS | 305 | 371 | 287
RPMI 5 mM glucose + 10% FBS | 350 | 336 | 304
RPMI 5 mM glucose + 10% dialyzed FBS | 316 | 332 | 328

C=C(c1ccc(C(=O)O)cc1)c1cc2c(cc1C)C(C)(C)CCC2(C)C
Settings | cell viability [%]
P12-Ichikawa [5], HPLM + 10% dialyzed FBS, 0.000781 µM | 113
P12-Ichikawa [5], HPLM + 10% dialyzed FBS, 0.00234 µM | 119
P12-Ichikawa [5], HPLM + 10% dialyzed FBS, 0.00702 µM | 121
P12-Ichikawa [5], HPLM + 10% dialyzed FBS, 0.0211 µM | 121
P12-Ichikawa [5], HPLM + 10% dialyzed FBS, 0.0632 µM | 126
P12-Ichikawa [5], HPLM + 10% dialyzed FBS, 0.19 µM | 129
P12-Ichikawa [5], HPLM + 10% dialyzed FBS, 0.569 µM | 125
P12-Ichikawa [5], HPLM + 10% dialyzed FBS, 1.71 µM | 120
P12-Ichikawa [5], HPLM + 10% dialyzed FBS, 5.12 µM | 124
P12-Ichikawa [5], HPLM + 10% dialyzed FBS, 15.4 µM | 117
P12-Ichikawa [5], HPLM + 10% dialyzed FBS, 46.1 µM | 114
SEM cells [4], RPMI 5 mM glucose + 10% dialyzed FBS, 0.000781 µM | 95
SEM cells [4], RPMI 5 mM glucose + 10% dialyzed FBS, 0.00234 µM | 110
SEM cells [4], RPMI 5 mM glucose + 10% dialyzed FBS, 0.00702 µM | 134
SEM cells [4], RPMI 5 mM glucose + 10% dialyzed FBS, 0.0211 µM | 116
SEM cells [4], RPMI 5 mM glucose + 10% dialyzed FBS, 0.0632 µM | 116
SEM cells [4], RPMI 5 mM glucose + 10% dialyzed FBS, 0.19 µM | 125
SEM cells [4], RPMI 5 mM glucose + 10% dialyzed FBS, 0.569 µM | 120
SEM cells [4], RPMI 5 mM glucose + 10% dialyzed FBS, 1.71 µM | 118
SEM cells [4], RPMI 5 mM glucose + 10% dialyzed FBS, 5.12 µM | 111
SEM cells [4], RPMI 5 mM glucose + 10% dialyzed FBS, 15.4 µM | 99.3
SEM cells [4], RPMI 5 mM glucose + 10% dialyzed FBS, 46.1 µM | 83.5

AUC of viability dose-response curve
Settings | NOMO1 [1] | P12-Ichikawa [2] | SEM cells [3]
HPLM + 10% dialyzed FBS | 422 | 477 | 465
RPMI 5 mM glucose + 10% FBS | 434 | 470 | 465
RPMI 5 mM glucose + 10% dialyzed FBS | 431 | 468 | 461

COc1cc2nc(N3CCN(C(=O)C4COc5ccccc5O4)CC3)nc(N)c2cc1OC (configuration not stated)
cell viability [%], HPLM + 10% dialyzed FBS
Settings | P12-Ichikawa [5] | SEM cells [4]
0.000781 µM | 122 | 123
0.00234 µM | 125 | 125
0.00702 µM | 137 | 115
0.0211 µM | 127 | 126
0.0632 µM | 129 | 122
0.19 µM | 132 | 128
0.569 µM | 132 | 113
1.71 µM | 131 | 132
5.12 µM | 115 | 120
15.4 µM | 112 | 119
46.1 µM | 82.3 | 91.4

AUC of viability dose-response curve
Settings | NOMO1 [1] | P12-Ichikawa [2] | SEM cells [3]
HPLM + 10% dialyzed FBS | 439 | 457 | 469
RPMI 5 mM glucose + 10% FBS | 452 | 461 | 450
RPMI 5 mM glucose + 10% dialyzed FBS | 456 | 467 | 447

N[S+](=O)([O-])c1ccc(Nc2nc(OCC3CCCCC3)c3[nH]cnc3n2)cc1
cell viability [%]
Settings | NOMO1 [6] | P12-Ichikawa [5] | SEM cells [4]
HPLM + 10% dialyzed FBS, 0.000781 µM | 111 | 114 | 103
HPLM + 10% dialyzed FBS, 0.00234 µM | 131 | 115 | 117
HPLM + 10% dialyzed FBS, 0.00702 µM | 117 | 117 | 106
HPLM + 10% dialyzed FBS, 0.0211 µM | 116 | 118 | 113
HPLM + 10% dialyzed FBS, 0.0632 µM | 119 | 48 | 101
HPLM + 10% dialyzed FBS, 0.19 µM | 73.7 | 24.2 | 115
HPLM + 10% dialyzed FBS, 0.569 µM | 38.2 | 13.1 | 43
HPLM + 10% dialyzed FBS, 1.71 µM | 41.3 | 15.9 | 24
HPLM + 10% dialyzed FBS, 5.12 µM | 58.2 | 20.3 | 23.8
HPLM + 10% dialyzed FBS, 15.4 µM | 56.1 | 52.2 | 16.4
HPLM + 10% dialyzed FBS, 46.1 µM | 42.9 | 73 | 3.57
RPMI 5 mM glucose + 10% FBS, 0.000781 µM | 97.1 | 117 | –
RPMI 5 mM glucose + 10% FBS, 0.00234 µM | 106 | 118 | –
RPMI 5 mM glucose + 10% FBS, 0.00702 µM | 109 | 115 | –
RPMI 5 mM glucose + 10% FBS, 0.0211 µM | 107 | 120 | –
RPMI 5 mM glucose + 10% FBS, 0.0632 µM | 103 | 103 | –
RPMI 5 mM glucose + 10% FBS, 0.19 µM | 103 | 109 | –
RPMI 5 mM glucose + 10% FBS, 0.569 µM | 66.9 | 32.3 | –
RPMI 5 mM glucose + 10% FBS, 1.71 µM | 28.4 | 14.7 | –
RPMI 5 mM glucose + 10% FBS, 5.12 µM | 24.3 | 15.2 | –
RPMI 5 mM glucose + 10% FBS, 15.4 µM | 31.4 | 19.4 | –
RPMI 5 mM glucose + 10% FBS, 46.1 µM | 47.1 | 66.2 | –
RPMI 5 mM glucose + 10% dialyzed FBS, 0.000781 µM | 119 | 120 | 109
RPMI 5 mM glucose + 10% dialyzed FBS, 0.00234 µM | 115 | 123 | 134
RPMI 5 mM glucose + 10% dialyzed FBS, 0.00702 µM | 118 | 111 | 114
RPMI 5 mM glucose + 10% dialyzed FBS, 0.0211 µM | 117 | 120 | 120
RPMI 5 mM glucose + 10% dialyzed FBS, 0.0632 µM | 104 | 109 | 112
RPMI 5 mM glucose + 10% dialyzed FBS, 0.19 µM | 116 | 108 | 109
RPMI 5 mM glucose + 10% dialyzed FBS, 0.569 µM | 78.2 | 25.2 | 49.6
RPMI 5 mM glucose + 10% dialyzed FBS, 1.71 µM | 35.9 | 20.7 | 21
RPMI 5 mM glucose + 10% dialyzed FBS, 5.12 µM | 35 | 22.5 | 21.2
RPMI 5 mM glucose + 10% dialyzed FBS, 15.4 µM | 32 | 36.5 | 14.4
RPMI 5 mM glucose + 10% dialyzed FBS, 46.1 µM | 67.1 | 59.5 | 2.04

AUC of viability dose-response curve
Settings | HPLM + 10% dialyzed FBS | RPMI 5 mM glucose + 10% FBS | RPMI 5 mM glucose + 10% dialyzed FBS
NOMO1 [1] | 330 | 346 | 357
SEM cells [3] | 307 | 276 | 298

CCn1c(=O)c2c(nc(/C=C/c3ccc(OC)c(OC)c3)n2C)n(CC)c1=O
AUC of viability dose-response curve
Settings | NOMO1 [1] | P12-Ichikawa [2] | SEM cells [3]
HPLM + 10% dialyzed FBS | 425 | 467 | 470
RPMI 5 mM glucose + 10% FBS | 424 | 451 | 463
RPMI 5 mM glucose + 10% dialyzed FBS | 436 | 464 | 472

N=C(N)NC(=N)NCCc1ccccc1
AUC of viability dose-response curve
Settings | NOMO1 [1] | P12-Ichikawa [2] | SEM cells [3]
HPLM + 10% dialyzed FBS | 464 | 450 | 465
RPMI 5 mM glucose + 10% FBS | 456 | 440 | 461
RPMI 5 mM glucose + 10% dialyzed FBS | 455 | 438 | 444

CC(=O)OCC(=O)[C@@]1(O)CC[C@H]2[C@@H]3CCC/4=C/C(=O)CC[C@]4(C)[C@H]3C(=O)C[C@]12C
SEM cells [4], HPLM + 10% dialyzed FBS
Settings | cell viability [%]
0.000781 µM | 106
0.00234 µM | 109
0.00702 µM | 112
0.0211 µM | 101
0.0632 µM | 107
0.19 µM | 117
0.569 µM | 84.5
1.71 µM | 51.8
5.12 µM | 112
15.4 µM | 111
46.1 µM | 118

AUC of viability dose-response curve
Settings | NOMO1 [1] | P12-Ichikawa [2] | SEM cells [3]
HPLM + 10% dialyzed FBS | 464 | 460 | 466
RPMI 5 mM glucose + 10% FBS | 476 | 470 | 466
RPMI 5 mM glucose + 10% dialyzed FBS | 459 | 430 | 445

CN1CCc2c(n(Cc3ccc(C(=O)NO)cc3)c3ccccc23)C1
AUC of viability dose-response curve
Settings | NOMO1 [1] | P12-Ichikawa [2] | SEM cells [3]
HPLM + 10% dialyzed FBS | 452 | 448 | 443
RPMI 5 mM glucose + 10% FBS | 440 | 453 | 442
RPMI 5 mM glucose + 10% dialyzed FBS | 449 | 451 | 452
